# Results published in patent publication US12447167B2, “GM-CSF-producing t-cell control agent and Th1/Th2 immune balance regulator” (National Center of Neurology and Psychiatry, priority 2014, dated 2025).
# Tests used:
# [1] = tested on: GM-CSF production from lymph node T-cells; assay: Amount of GM-CSF in lymph node cell culture supernatants of mice after oral dose (ELISA); format: in vivo, C57BL/6 mice; conditions: for suppressive effects on GM-CSF production from lymph node T-cells: oral high dose 1 mg/kg
# Method: Compound 31 was orally administered to 8-week-old C57BL/6 mice (female) by using a probe. The dose employed 15 μg/kg (low dose) of compound 31 or 1 mg/kg (high dose) of compound 31 dissolved in 200 μL of mouse drinking water. As a control, 200 μL of mouse drinking water was administered alone.
# 2 days or 7 days after the oral administration of compound 31, each mouse was euthanized by cervical dislocation, and axillary and inguinal lymph nodes were collected. The collected lymph nodes were disrupted on BD Falcon Cell Strainer (Becton, Dickinson and Company) having a diameter of 40 μm, PBS was added, and the resultant was recovered into a 50-mL conical tube and centrifuged at 1500 rpm for 5 minutes, and then, a supernatant was removed by suction.
# The recovered cells were suspended into a single cell suspension by adding 1000 μL of an RPMI medium (Life Technologies Corp.) containing 10% FBS (Fetal Bovine Serum; Life Technologies Corp.), and then, the number of cells was measured with a counting chamber.
# On the day prior to the lymph node collection from the mice after the administration, an anti-CD3 monoclonal antibody (self-produced) and an anti-CD28 antibody (Becton, Dickinson and Company) were each adjusted to 1 μg/mL with PBS, placed at 50 μL to each well of BD Falcon 96-well flat bottom plate (Becton, Dickinson and Company), and stored at 4° C. so that the plate was coated with the anti-CD3/CD28 antibodies. The prepared single cell suspension was inoculated at 5×10^5 cells/well to the plate and then cultured at 37° C. for 48 hours in a 5% CO2 incubator to perform stimulation with the anti-CD3 antibody and the anti-CD28 antibody.
# A supernatant was recovered, and the concentration of GM-CS contained in the culture supernatant was measured by using an ELISA kit (OptEIA Mouse GM-CSF ELISA set; Becton, Dickinson and Company) according to the attached document.
# [2] = Disposition after single oral dose, rat; format: in vivo; conditions: male rat, 10 mg/kg single oral, 14C-labeled, fasting
# Method: (§1) After a single dose of compound 31 labeled with ^14C was orally administered at a predetermined dose to each of a male mouse, a male rat, and a male cynomolgus monkey under fasting conditions, the concentration in blood was measured after a lapse of a given time, and parameters such as maximum plasma concentration Cmax, time Tmax to reach the maximum plasma concentration, half-life t1/2, area under curve AUC0-∞, mean retention time MRT0-∞, and bioavailability BA were calculated. The concentration in blood in humans (normal subjects) was measured and each of the parameters was calculated, in the similar manner as above except that ^14C-unlabeled compound 31 was used.
# (§2) In the tables, “N.D.” means not detected.
# [3] = Disposition after single oral dose, humans (normal subjects); format: in vivo, human; parameters: concentration in blood: unit not given here; conditions: for AUC(0-inf) / AUC(0-t) / half-life / Cmax / Tmax: human; for AUC(0-inf) / AUC(0-t) / half-life: blood; for AUC(0-inf) / AUC(0-t) / half-life / Cmax / Tmax / concentration in blood: normal subjects; for Cmax / Tmax: plasma
# Method: as §1, §2
# In this context, assuming the body weights of the humans were 60 kg, the doses were corrected to be the same, and the value of AUC0-∞ was compared between the mouse, the rat, and the cynomolgus monkey, and the humans. […] Specifically, AUC0-∞ for the humans was 2.72 to 8.94 times AUC0-∞ for the mouse, 4.77 to 15.7 times AUC0-∞ for the rat, and 6.69 to 22.0 times AUC0-∞ for the cynomolgus monkey.
structure (smiles),measurement,setting,value
"CCCCCCCCCCCCCCCCCCCCCCCC(=O)NC(COC1OC(CO)C(O)C(O)C1O)[C@H](O)C(O)CCCCC (stereo in doubt) [compound 31, (2S,3S,4R)-1-O-(α-D-galactosyl)-2-(N-tetracosanoylamino)-1,3,4-nonanetriol]",suppressive effects on GM-CSF production from lymph node T-cells,[1]; 2nd day after administration,not seen
same,suppressive effects on GM-CSF production from lymph node T-cells,[1]; 7th day after administration,observed
same,GM-CSF production from lymph node T-cells,"[1]; oral low dose 15 μg/kg, anti-CD3/CD28 stimulation 48 h, vs vehicle",significantly suppressed
same,AUC(0-inf),[2]; blood,3330 ng·h/mL
same,AUC(0-t),[2]; blood,3130 ng·h/mL
same,half-life,[2]; blood,26 h
same,MRT inf,"[2]; blood, read-out: MRT0-∞",32.4 h
same,BA,[2],0.51%
same,Rate of absorption,[2],0.96%
same,concentration in blood,[2]; 4 h,31
same,concentration in blood,[2]; 8 h,128
same,concentration in blood,[2]; 12 h,101
same,concentration in blood,[2]; 24 h,47.1
same,concentration in blood,[2]; 48 h,18.5
same,concentration in blood,[2]; 72 h,10.2
same,Cmax,[2]; plasma,128 ng/mL
same,Tmax,[2]; plasma,8 h
same,"species difference (fold) of dose-corrected AUC0-∞, human vs cynomolgus monkey",[3]; human 0.3 mg/body (60 kg assumed) vs cynomolgus monkey 10 mg/kg,19.70 fold
same,"species difference (fold) of dose-corrected AUC0-∞, human vs mouse",[3]; human 0.3 mg/body (60 kg assumed) vs mouse 5 mg/kg,8.01 fold
same,"species difference (fold) of dose-corrected AUC0-∞, human vs rat",[3]; human 0.3 mg/body (60 kg assumed) vs rat 10 mg/kg,14.05 fold
same,"species difference (fold) of dose-corrected AUC0-∞, human vs cynomolgus monkey",[3]; human 1 mg/body (60 kg assumed) vs cynomolgus monkey 10 mg/kg,21.99 fold
same,"species difference (fold) of dose-corrected AUC0-∞, human vs mouse",[3]; human 1 mg/body (60 kg assumed) vs mouse 5 mg/kg,8.94 fold
same,"species difference (fold) of dose-corrected AUC0-∞, human vs rat",[3]; human 1 mg/body (60 kg assumed) vs rat 10 mg/kg,15.69 fold
same,"species difference (fold) of dose-corrected AUC0-∞, human vs cynomolgus monkey",[3]; human 3 mg/body (60 kg assumed) vs cynomolgus monkey 10 mg/kg,12.29 fold
same,"species difference (fold) of dose-corrected AUC0-∞, human vs mouse",[3]; human 3 mg/body (60 kg assumed) vs mouse 5 mg/kg,5.00 fold
same,"species difference (fold) of dose-corrected AUC0-∞, human vs rat",[3]; human 3 mg/body (60 kg assumed) vs rat 10 mg/kg,8.77 fold
same,"species difference (fold) of dose-corrected AUC0-∞, human vs cynomolgus monkey",[3]; human 10 mg/body (60 kg assumed) vs cynomolgus monkey 10 mg/kg,9.62 fold
same,"species difference (fold) of dose-corrected AUC0-∞, human vs mouse",[3]; human 10 mg/body (60 kg assumed) vs mouse 5 mg/kg,3.91 fold
same,"species difference (fold) of dose-corrected AUC0-∞, human vs rat",[3]; human 10 mg/body (60 kg assumed) vs rat 10 mg/kg,6.86 fold
same,"species difference (fold) of dose-corrected AUC0-∞, human vs cynomolgus monkey",[3]; human 30 mg/body (60 kg assumed) vs cynomolgus monkey 10 mg/kg,6.69 fold
same,"species difference (fold) of dose-corrected AUC0-∞, human vs mouse",[3]; human 30 mg/body (60 kg assumed) vs mouse 5 mg/kg,2.72 fold
same,"species difference (fold) of dose-corrected AUC0-∞, human vs rat",[3]; human 30 mg/body (60 kg assumed) vs rat 10 mg/kg,4.77 fold
same,AUC(0-inf),[3]; 0.3 mg/body oral,23.4 ng·h/mL
same,AUC(0-t),[3]; 0.3 mg/body oral,11.7 ng·h/mL
same,half-life,[3]; 0.3 mg/body oral,21.4 h
same,AUC(0-inf),[3]; 1 mg/body oral,87.1 ng·h/mL
same,AUC(0-t),[3]; 1 mg/body oral,63.4 ng·h/mL
same,half-life,[3]; 1 mg/body oral,44.3 h
same,AUC(0-inf),[3]; 3 mg/body oral,146 ng·h/mL
same,AUC(0-t),[3]; 3 mg/body oral,121 ng·h/mL
same,half-life,[3]; 3 mg/body oral,47.8 h
same,AUC(0-inf),[3]; 10 mg/body oral,381 ng·h/mL
same,AUC(0-t),[3]; 10 mg/body oral,324 ng·h/mL
same,half-life,[3]; 10 mg/body oral,45.3 h
same,AUC(0-inf),[3]; 30 mg/body oral,795 ng·h/mL
same,AUC(0-t),[3]; 30 mg/body oral,657 ng·h/mL
same,half-life,[3]; 30 mg/body oral,53.6 h
same,Cmax,[3]; 0.3 mg/body oral,0.629 ng/mL
same,Tmax,[3]; 0.3 mg/body oral,13 h
same,Cmax,[3]; 1 mg/body oral,1.49 ng/mL
same,Tmax,[3]; 1 mg/body oral,20.7 h
same,Cmax,[3]; 3 mg/body oral,2.11 ng/mL
same,Tmax,[3]; 3 mg/body oral,28.3 h
same,Cmax,[3]; 10 mg/body oral,6.01 ng/mL
same,Tmax,[3]; 10 mg/body oral,26.3 h
same,Cmax,[3]; 30 mg/body oral,9.81 ng/mL
same,Tmax,[3]; 30 mg/body oral,28.3 h
same,concentration in blood,"[3]; 0.3 mg/body oral, 6 h",0.368
same,concentration in blood,"[3]; 0.3 mg/body oral, 13 h",0.629
same,concentration in blood,"[3]; 0.3 mg/body oral, 21 h",0.365
same,concentration in blood,"[3]; 0.3 mg/body oral, 24 h",0.31
same,concentration in blood,"[3]; 0.3 mg/body oral, 30 h",0.382
same,concentration in blood,"[3]; 1 mg/body oral, 6 h",0.368
same,concentration in blood,"[3]; 1 mg/body oral, 13 h",1.39
same,concentration in blood,"[3]; 1 mg/body oral, 21 h",1.04
same,concentration in blood,"[3]; 1 mg/body oral, 24 h",0.98
same,concentration in blood,"[3]; 1 mg/body oral, 30 h",0.961
same,concentration in blood,"[3]; 1 mg/body oral, 36 h",1.01
same,concentration in blood,"[3]; 1 mg/body oral, 48 h",0.719
same,concentration in blood,"[3]; 1 mg/body oral, 72 h",0.484
same,concentration in blood,"[3]; 1 mg/body oral, 96 h",0.224
same,concentration in blood,"[3]; 3 mg/body oral, 6 h",0.337
same,concentration in blood,"[3]; 3 mg/body oral, 13 h",1.13
same,concentration in blood,"[3]; 3 mg/body oral, 21 h",1.33
same,concentration in blood,"[3]; 3 mg/body oral, 24 h",1.33
same,concentration in blood,"[3]; 3 mg/body oral, 30 h",1.7
same,concentration in blood,"[3]; 3 mg/body oral, 36 h",1.99
same,concentration in blood,"[3]; 3 mg/body oral, 48 h",1.37
same,concentration in blood,"[3]; 3 mg/body oral, 72 h",0.838
same,concentration in blood,"[3]; 3 mg/body oral, 96 h",0.549
same,concentration in blood,"[3]; 3 mg/body oral, 144 h",0.266
same,concentration in blood,"[3]; 10 mg/body oral, 6 h",2.01
same,concentration in blood,"[3]; 10 mg/body oral, 13 h",3.32
same,concentration in blood,"[3]; 10 mg/body oral, 21 h",3.15
same,concentration in blood,"[3]; 10 mg/body oral, 24 h",3.33
same,concentration in blood,"[3]; 10 mg/body oral, 30 h",3.76
same,concentration in blood,"[3]; 10 mg/body oral, 36 h",5.37
same,concentration in blood,"[3]; 10 mg/body oral, 48 h",3.66
same,concentration in blood,"[3]; 10 mg/body oral, 72 h",2.23
same,concentration in blood,"[3]; 10 mg/body oral, 96 h",1.42
same,concentration in blood,"[3]; 10 mg/body oral, 144 h",0.689
same,concentration in blood,"[3]; 30 mg/body oral, 6 h",2.82
same,concentration in blood,"[3]; 30 mg/body oral, 13 h",6.65
same,concentration in blood,"[3]; 30 mg/body oral, 21 h",6.98
same,concentration in blood,"[3]; 30 mg/body oral, 24 h",7.47
same,concentration in blood,"[3]; 30 mg/body oral, 30 h",8.08
same,concentration in blood,"[3]; 30 mg/body oral, 36 h",9.46
same,concentration in blood,"[3]; 30 mg/body oral, 48 h",6.58
same,concentration in blood,"[3]; 30 mg/body oral, 72 h",4.65
same,concentration in blood,"[3]; 30 mg/body oral, 96 h",3.05
same,concentration in blood,"[3]; 30 mg/body oral, 144 h",1.82
